The record followed here is US8063225B2, “Tricyclic compound derivatives useful in the treatment of neoplastic diseases, inflammatory disorders and immunomodulatory disorders” (Chembridge Corporation, priority 2006, dated 2011).

For assay [1], the target named is T1, IGF1R tyrosine kinase (Homo sapiens, UniProt P08069).
T1 construct: 6×His- or GST-tagged kinase domain fragments of the corresponding RTKs expressed in baculovirus system; host or cells: baculovirus system
Nature of the assay: IGF1R tyrosine kinase assay (Kinase-Glo ATP depletion or PT66/PT100 AlphaScreen). To be noted: biochemical tyrosine kinase assay. The method, boiled down:
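Kinase-Glo format: baculovirus-expressed tagged kinase domain, poly(Glu-Tyr), 10 μM ATP, pH 7.5 Tris, MgCl2/MnCl2, DTT; 60 min at 37° C; remaining ATP by luciferase luminescence. Other kinases run identically, enzyme titrated to ≤30% ATP consumption. IC50 by non-linear regression, quadruplicates.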
In general terms: Kinase-Glo reads ATP consumption through a luciferase reaction.

For assay [2], the system named is HEK293 (human normal embryonic kidney). Description: Cell proliferation inhibition, Cell Titer-Glo, HEK293. Conditions: cell proliferation assay, HEK293 cells, read-out: HEK 293 IC50. Type of assay: cell-based. Summed up: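 Cells seeded at 2500-5000 per well with serially diluted compound for typically 3 days. Viable cells measured by ATP luminescence (Cell Titer-Glo); IC50 from proliferation-inhibition curves.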

Structures are written as SMILES.

T1 sequence (P08069 999-1274 limits assumed): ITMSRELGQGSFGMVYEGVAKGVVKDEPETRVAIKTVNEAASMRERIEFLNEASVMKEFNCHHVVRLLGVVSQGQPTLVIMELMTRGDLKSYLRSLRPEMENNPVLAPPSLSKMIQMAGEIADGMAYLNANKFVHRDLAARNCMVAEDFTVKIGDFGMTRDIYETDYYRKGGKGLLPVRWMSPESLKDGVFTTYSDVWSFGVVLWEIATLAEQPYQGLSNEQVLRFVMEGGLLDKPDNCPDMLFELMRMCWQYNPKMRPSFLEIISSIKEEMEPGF

A word on the IC50: it is the midpoint of a concentration-inhibition curve. Regarding `O=C1c2cc3nc(-c4c(NC[C@@H](O)c5cccc(Cl)c5)cc[nH]c4=O)[nH]c3cc2C(=O)N1[C@@H]1CN2CCC1CC2` [compound 33], the IC50 in assay [1] is below 0.5 µM.

For the compound `Cc1ccc(OC[C@H](O)CNc2cc[nH]c(=O)c2-c2nc3cc4c(cc3[nH]2)C(=O)N(C2CCN(C)CC2)C4=O)cc1Cl` [compound 99], the IC50 in assay [1] was below 0.5 µM.

As for `Cc1ccc(OC[C@@H](O)CNc2cc[nH]c(=O)c2-c2nc3cc4c(cc3[nH]2)C(=O)N([C@@H]2CCN(C)C2)C4=O)c(C)c1` [compound 107], the IC50 in assay [1] was below 0.5 µM.

With `Cc1ccc(OC[C@@H](O)CNc2cc[nH]c(=O)c2-c2nc3cc4c(cc3[nH]2)C(=O)N([C@H]2CCN(C)C2)C4=O)c(C)c1` [compound 106], the IC50 in assay [1] is below 0.5 µM.

For the compound `Cc1ncsc1CCN1C(=O)c2cc3nc(-c4c(NC[C@@H](O)c5cccc(Cl)c5)cc[nH]c4=O)[nH]c3cc2C1=O` [compound 32], in assay [1], the IC50 fell in the range of 5 to 15 µM.

`Cc1cc(C)c(OC[C@H](O)CNc2cc[nH]c(=O)c2-c2nc3cc4c(cc3[nH]2)C(=O)N(C2CCN(C)CC2)C4=O)cc1Cl` [compound 108]: the results for the IC50 in assay [1] and in assay [2] were 0.5 to 5 µM and 5 to 15 µM, respectively.

In the case of `CN1CCC(N2C(=O)c3cc4nc(-c5c(NC[C@@H](O)COc6cccc(C(F)(F)F)c6)cc[nH]c5=O)[nH]c4cc3C2=O)CC1` [compound 97], the IC50 in assay [1] is 0.5 to 5 µM; in assay [2] it was above 15 µM.

In assay [1], `CN1CCC(N2C(=O)c3cc4nc(-c5c(N[C@H](CO)Cc6c[nH]cn6)cc[nH]c5=O)[nH]c4cc3C2=O)CC1` [compound 2] displayed an IC50 above 15 µM.

`C[C@H](O)CN1C(=O)c2cc3nc(-c4c(NC[C@@H](O)c5cccc(Cl)c5)cc[nH]c4=O)[nH]c3cc2C1=O` [compound 31]: the IC50 in assay [1] and in assay [2] was 5 to 15 µM in each case.

Compound `CN1CCC(N2C(=O)c3cc4nc(-c5c(NC[C@@H](O)COc6ccc7ccccc7c6)cc[nH]c5=O)[nH]c4cc3C2=O)CC1` [compound 88] yielded an IC50 in assay [1] of 0.5 to 5 µM.

On to `O=C1c2cc3nc(-c4c(NC[C@@H](O)c5cccc(Cl)c5)cc[nH]c4=O)[nH]c3cc2C(=O)N1[C@H]1CN2CCC1CC2` [compound 34], for which the IC50 in assay [1] was below 0.5 µM.

Compound `Cc1ccc(OC[C@H](O)CNc2cc[nH]c(=O)c2-c2nc3c(C)c4c(cc3[nH]2)C(=O)N(C2CCN(C)CC2)C4=O)c(C)c1` [compound 110] gave an IC50 in assay [1] below 0.5 µM.

In the case of `Cc1c(Cl)cccc1OC[C@H](O)CNc1cc[nH]c(=O)c1-c1nc2cc3c(cc2[nH]1)C(=O)N(C1CCN(C)CC1)C3=O` [compound 94], the IC50 in assay [1] is below 0.5 µM; in assay [2], above 15 µM.

In assay [1], `Cc1cc(C)n(C[C@H](O)CNc2cc[nH]c(=O)c2-c2nc3cc4c(cc3[nH]2)C(=O)N(C2CCN(C)CC2)C4=O)n1` [compound 92] yielded an IC50 of 5 to 15 µM.

For `CN1CCC(N2C(=O)c3cc4nc(-c5c(NC[C@@H](O)COc6c(F)ccc(Cl)c6F)cc[nH]c5=O)[nH]c4cc3C2=O)CC1` [compound 95], the IC50 is below 0.5 µM in assay [1] and 5 to 15 µM in assay [2].

`Cc1cc(C)c(OC[C@H](O)CNc2cc[nH]c(=O)c2-c2nc3cc4c(cc3[nH]2)C(=O)N(C2CCN(C)CC2)C4=O)c(CS(C)(=O)=O)c1` [compound 84] showed an IC50 in assay [1] of 0.5 to 5 µM.

Consider `COc1cccc(OCC(O)CNc2cc[nH]c(=O)c2-c2nc3cc4c(cc3[nH]2)C(=O)N(C2CCN(C)CC2)C4=O)c1` (stereo not drawn) [compound 6], for which the IC50 in assay [1] was below 0.5 µM.

Take `CN1CCC(N2C(=O)c3cc4nc(-c5c(NC[C@@H](O)COc6cccc(-c7ccccc7)c6)cc[nH]c5=O)[nH]c4cc3C2=O)CC1` [compound 89]: the IC50 in assay [1] lay within 0.5 to 5 µM.

On to `O=C1c2cc3nc(-c4c(NC[C@@H](O)c5cccc(Cl)c5)cc[nH]c4=O)[nH]c3cc2C(=O)N1CCc1ccncc1` [compound 28], for which the IC50 in assay [1] was above 15 µM.

With `CC(C)(CO)CN1C(=O)c2cc3nc(-c4c(NC[C@@H](O)c5cccc(Cl)c5)cc[nH]c4=O)[nH]c3cc2C1=O` [compound 26], the IC50 in assay [1] fell in the range of 0.5 to 5 µM.

In assay [1], `Cc1ccc(Cl)c(C)c1OC[C@H](O)CNc1cc[nH]c(=O)c1-c1nc2cc3c(cc2[nH]1)C(=O)N(C1CCN(C)CC1)C3=O` [compound 111] yielded an IC50 of 0.5 to 5 µM.

`O=C1c2cc3nc(-c4c(NC[C@@H](O)c5cccc(Cl)c5)cc[nH]c4=O)[nH]c3cc2C(=O)N1C[C@@H]1CCCO1` [compound 29] displayed an IC50 in assay [1] above 15 µM.

Regarding `Cc1ccc(OCC(O)CNc2cc[nH]c(=O)c2-c2nc3cc4c(cc3[nH]2)C(=O)N(CC2CCN(CCO)CC2)C4=O)c(C)c1` (stereo not drawn) [compound 37], the half-inhibitory concentration (IC50) in assay [1] is above 15 µM.

Regarding `COc1ccc(OC[C@H](O)CNc2cc[nH]c(=O)c2-c2nc3cc4c(cc3[nH]2)C(=O)N(C2CCN(C)CC2)C4=O)c(OC)c1OC` [compound 93], the IC50 is below 0.5 µM in assay [1] and 5 to 15 µM in assay [2].

For `Cc1ccc(OC[C@H](O)CNc2cc[nH]c(=O)c2-c2nc3cc4c(cc3[nH]2)C(=O)N(C2CCN(C)CC2)C4=O)c(C)c1` [compound 59], the IC50 in assay [1] is below 0.5 µM; in assay [2], 5 to 15 µM.

Compound `CN1CCC(N2C(=O)c3cc4nc(-c5c(NC[C@@H](O)COc6cccc(OC(F)(F)C(F)F)c6)cc[nH]c5=O)[nH]c4cc3C2=O)CC1` [compound 91] yielded a half-maximal inhibitory concentration (IC50) in assay [1] of 5 to 15 µM.

As to `Cc1cc(C)c(OC[C@H](O)CNc2cc[nH]c(=O)c2-c2nc3cc4c(cc3[nH]2)C(=O)N(C2CCN(C)CC2)C4=O)c(C)c1` [compound 98], the IC50 in assay [1] is below 0.5 µM.

In assay [1], `CN1CCC(N2C(=O)c3cc4nc(-c5c(NC[C@@H](O)COc6cccc(Cl)c6F)cc[nH]c5=O)[nH]c4cc3C2=O)CC1` [compound 96] yielded an IC50 of 0.5 to 5 µM.

For `CN1CCC(N2C(=O)c3cc4nc(-c5c(NC[C@@H](O)COc6cccc7ccccc67)cc[nH]c5=O)[nH]c4cc3C2=O)CC1` [compound 87], the 50% inhibitory concentration (IC50) in assay [1] was below 0.5 µM.

In turn, `Cc1ccc(OC[C@@H](O)CNc2cc[nH]c(=O)c2-c2nc3cc4c(cc3[nH]2)C(=O)N(C2CCN(C)CC2)C4=O)c(C)c1` [compound 64] showed an IC50 in assay [1] below 0.5 µM.

`CN1CCC(N2C(=O)c3cc4nc(-c5c(NC[C@@H](O)c6cccc(Cl)c6)cc[nH]c5=O)[nH]c4cc3C2=O)CC1` [compound 1]: the 50% inhibitory concentration (IC50) was below 0.5 µM in assay [1] and 5 to 15 µM in assay [2].
